# “And” between values parts separate entries of the source, which are not always exact repeats. Identical values can stand only once. Counter-ions that a name gives are not always drawn. Like-named read-outs stand apart in the source and are kept apart here.
# Legend:
# [1] = test system: A549 cells; experiment: PLD assay of predicted ENZO library compounds in A549 cells; conditions: Homo sapiens, A549, read-out: PLD effect % in A549
# [2] = test system: CaCo2 cells; conditions: 10 μM in-assay concentration; ENZO library; amiodarone as positive control
# [3] = test system: Vero-E6 cells; experiment: cells; type: cell-based; conditions: for activation at 10 µM / activation at 5 µM / activation at 20 µM: Vero C1008, 24 h; for activation at 5 µM: read-out: PLD Effect in % 5 µM; for activation at 20 µM: read-out: PLD Effect in % 20 µM
# [4] = test system: SARS-CoV-2; conditions: cited from earlier work; for CaCo2 CPE inhibition %: Caco-2, 20 µM
# [5] = test system: SARS-CoV-2; conditions: cited from earlier work; for Vero-E6 CPE inhibition %: 10 µM
# [6] = test system: A549-ACE2 cells; experiment: cells; type: cell-based; conditions: A549-ACE2, 24 h, read-out: PLD_Effect(%) A549-ACE2
# [7] = cited from earlier work
# [8] = Chlorocebus sabaeus, read-out: PLD effect % in Vero-E6
# [9] = Chlorocebus sabaeus, read-out: PLD_Effect(%) VERO-E6
# [10] = Chlorocebus sabaeus, read-out: PLD Effect in % 10 µM
# [11] = Chlorocebus sabaeus, Vero C1008, read-out: PLD EC50 µM
# [12] = value is the negative log10 of mol/L
# [13] = Chlorocebus sabaeus, Vero C1008, read-out: PLD EC50
compound,measurement,setting,value
OCCN1CCN(CCCN2c3ccccc3Sc3ccc(C(F)(F)F)cc32)CC1 [Fluphenazine],activation at 10 µM,[1],77.4%
same,PLD effect % in CaCo2,[2],95.4%
same,activation at 10 µM,[3]; [8],90.3%
C[C@@H](NCCCc1cccc(C(F)(F)F)c1)c1cccc2ccccc12 [Cinacalcet],activation at 10 µM,[1],105%
same,PLD effect % in CaCo2,[2],20.9%
same,activation at 10 µM,[3]; [8],43%
"NCCC(Oc1ccc(C(F)(F)F)cc1)c1ccccc1 (stereo not drawn) [norfluoxetine, reference compound]",CaCo2 CPE inhibition %,[4],94.99%
same,Vero-E6 CPE inhibition %,[5],-0.11%
same,activation at 10 µM,[6],108%
same,activation at 10 µM,[3]; [9],62.2%
same,activation at 5 µM,[3]; Chlorocebus sabaeus,92.1%
same,activation at 10 µM,[3]; [10],112%
same,activation at 20 µM,[3]; Chlorocebus sabaeus,198%
same,EC50,[3]; [11],1.96 µM
CN(C/C=C/c1ccccc1)Cc1cccc2ccccc12 [Naftifine],activation at 10 µM,[1],7.5%
same,PLD effect % in CaCo2,[2],−3.3%
same,activation at 10 µM,[3]; [8],-1.6%
"CNCCC(Oc1ccc(C(F)(F)F)cc1)c1ccccc1 (stereo not drawn) [Fluoxetine, reference compound]",activation at 10 µM,[1],108%
same,activation at 10 µM,[3]; [8],111%
CC(CN1c2ccccc2Sc2ccccc21)N(C)C (stereo not drawn) [Promethazine],activation at 10 µM,[1],81.9%
same,PLD effect % in CaCo2,[2],37.8%
same,activation at 10 µM,[3]; [8],90.7%
CNCC[C@@H](Oc1ccccc1C)c1ccccc1 [Atomoxetine],activation at 10 µM,[1],70.9%
same,PLD effect % in CaCo2,[2],0.7%
same,activation at 10 µM,[3]; [8],27.7%
"COc1cccc([C@@H](C)NCCCc2ccccc2Cl)c1 [tecalcet, reference compound]",CaCo2 CPE inhibition %,[4],78.10%
same,Vero-E6 CPE inhibition %,[5],-0.13%
same,activation at 10 µM,[6],93%
same,activation at 10 µM,[3]; [9],70.1%
same,activation at 5 µM,[3]; Chlorocebus sabaeus,59.6%
same,activation at 10 µM,[3]; [10],74.3%
same,activation at 20 µM,[3]; Chlorocebus sabaeus,102%
same,EC50,[3]; [11],2.6 µM
CNCC[C@H](Oc1cccc2ccccc12)c1cccs1 [Duloxetine],activation at 10 µM,[1],108%
same,PLD effect % in CaCo2,[2],84.9%
same,activation at 10 µM,[3]; [8],95.9%
CN(C)CCCN1c2ccccc2CCc2ccc(Cl)cc21 [Clomipramine],activation at 10 µM,[1],66.2%
same,PLD effect % in CaCo2,[2],74.6%
same,activation at 10 µM,[3]; [8],70.9%
CN1CCC[C@@H]1CCO[C@](C)(c1ccccc1)c1ccc(Cl)cc1 [Clemastine],activation at 10 µM,[1],50.4%
same,PLD effect % in CaCo2,[2],6.9%
same,activation at 10 µM,[3]; [8],30.1%
CSc1ccc2c(c1)N(CCC1CCCCN1C)c1ccccc1S2 (stereo not drawn) [Thioridazine],activation at 10 µM,[1],33.5%
same,PLD effect % in CaCo2,[2],22.7%
same,activation at 10 µM,[3]; [8],44.7%
"CN1CCN(c2ccc(C(=O)Nc3n[nH]c4ccc(Cc5cc(F)cc(F)c5)cc34)c(NC3CCOCC3)c2)CC1 [entrectinib (RXDX-101), entrectinib, reference compound]",CaCo2 CPE inhibition %,[4],toxic
same,CaCo2 EC50 µM,[4],toxic
same,Vero-E6 CPE inhibition %,[5],toxic
same,Vero-E6 EC50 µM,[5],toxic
same,PLD EC50 µM,[3],toxic
same,PLD Effect in % 5 µM,[3],toxic
same,PLD Effect in % 10 µM,[3],toxic
same,PLD Effect in % 20 µM,[3],toxic
"c1cc2c(cc1C1CCCCC1)c1c3n2CCNC3CCC1 (stereo not drawn) [tetrindole, reference compound]",CaCo2 CPE inhibition %,[4],75.19%
same,Vero-E6 CPE inhibition %,[5],-0.34%
same,PLD Effect in % 5 µM,[3],133.51%
same,PLD Effect in % 10 µM,[3],133.70%
same,PLD Effect in % 20 µM,[3],-33.00%
same,EC50,[3]; read-out: PLD EC50,9.59 µM
"COCC(=O)O[C@]1(CCN(C)CCCc2nc3ccccc3[nH]2)CCc2cc(F)ccc2[C@@H]1C(C)C [mibefradil, reference compound]",CaCo2 CPE inhibition %,[4],52.45%
same,Vero-E6 CPE inhibition %,[5],-0.26
same,"pchembl_value (type AC50), Dopamine D3 receptor",[7],6.08
same,"pchembl_value (type AC50), Mu opioid receptor",[7],6.01
same,"pchembl_value (type AC50), Serotonin 1a (5-HT1a) receptor",[7],6.13
same,AC50,"[7]; read-out: AC50 (value), Dopamine D3 receptor",825 nM
same,AC50,"[7]; read-out: AC50 (value), Mu opioid receptor",979 nM
same,AC50,"[7]; read-out: AC50 (value), Serotonin 1a (5-HT1a) receptor",746 nM
same,IC50,"[7]; read-out: IC50 (value), Voltage-gated L-type calcium channel alpha-1C subunit",250 nM
same,"pchembl_value (type IC50), Voltage-gated L-type calcium channel alpha-1C subunit",[7]; [12],6.60
same,"pchembl_value (type IC50), Voltage-gated T-type calcium channel alpha-1G subunit",[7]; [12],6.00 and 7.19
same,"pchembl_value (type IC50), Voltage-gated T-type calcium channel alpha-1H subunit",[7]; [12],6.00 and 6.89
same,"pchembl_value (type IC50), Voltage-gated T-type calcium channel alpha-1I subunit",[7]; [12],6.90 and 6.00 and 6.89
same,activation at 10 µM,[6],97.4%
same,activation at 10 µM,[3]; [9],88.2%
same,activation at 5 µM,[3]; Chlorocebus sabaeus,62%
same,activation at 10 µM,[3]; [10],80.5%
same,activation at 20 µM,[3]; Chlorocebus sabaeus,2.41%
same,EC50,[3]; [13],2.45 µM
"CCN(CC)CC1CCN(c2ncc3ncnc(Nc4ccc(F)c(Cl)c4)c3n2)CC1 [BIBU-1361, reference compound]",CaCo2 CPE inhibition %,[4],78.51%
same,Vero-E6 CPE inhibition %,[5],-0.24%
same,PLD Effect in % 5 µM,[3],160.51%
same,PLD Effect in % 10 µM,[3],180.15%
same,PLD Effect in % 20 µM,[3],-42.53%
same,EC50,[3]; read-out: PLD EC50,0.63 µM
"CCCCN1[C@@H]2CC[C@H]1C[C@@H](OC(c1ccc(F)cc1)c1ccc(F)cc1)C2 [JHW-007, reference compound]",CaCo2 CPE inhibition %,[4],93.14%
same,Vero-E6 CPE inhibition %,[5],-0.32%
same,PLD Effect in % 5 µM,[3],115.34%
same,PLD Effect in % 10 µM,[3],112.39%
same,PLD Effect in % 20 µM,[3],86.69%
same,EC50,[3]; read-out: PLD EC50,0.71 µM
CN1CCN(CCCN2c3ccccc3Sc3ccc(C(F)(F)F)cc32)CC1 [Trifluoperazine],activation at 10 µM,[1],97.8%
same,PLD effect % in CaCo2,[2],63.2%
same,activation at 10 µM,[3]; [8],102%
amodiaquine dihydrochloride [reference compound],CaCo2 CPE inhibition %,[4],78.80%
same,Vero-E6 CPE inhibition %,[5],20.16%
same,EC50,[5]; read-out: Vero-E6 EC50,21500 nM
same,PLD Effect in % 5 µM,[3],88.75%
same,PLD Effect in % 10 µM,[3],101.86%
same,PLD Effect in % 20 µM,[3],186.68%
"O=C(NC1CCN(CCCCC2(C(=O)NCC(F)(F)F)c3ccccc3-c3ccccc32)CC1)c1ccccc1-c1ccc(C(F)(F)F)cc1 [Lomitapide, reference compound]",CaCo2 CPE inhibition %,[4],77.37%
same,Vero-E6 CPE inhibition %,[5],-0.39%
same,activation at 5 µM,[3]; Chlorocebus sabaeus,82.8%
same,activation at 10 µM,[3]; [10],169%
same,activation at 20 µM,[3]; Chlorocebus sabaeus,-28.6%
"CCOc1cc(C(C)(C)C)ccc1C1=N[C@@](C)(c2ccc(Cl)cc2)[C@@](C)(c2ccc(Cl)cc2)N1C(=O)N1CCN(CCCS(C)(=O)=O)CC1 [RG7112 (RO50455337), reference compound]",CaCo2 CPE inhibition %,[4],88.52%
same,Vero-E6 CPE inhibition %,[5],6.32
same,activation at 5 µM,[3]; Chlorocebus sabaeus,109%
same,activation at 10 µM,[3]; [10],141%
same,activation at 20 µM,[3]; Chlorocebus sabaeus,88.5%
same,EC50,[3]; [13],2.56 µM
"CN1C[C@H](CNC(=O)OCc2ccccc2)C[C@@H]2c3cccc4c3c(cn4C)C[C@H]21 [metergoline, reference compound]",CaCo2 CPE inhibition %,[4],54.65%
same,Vero-E6 CPE inhibition %,[5],0.05%
same,activation at 5 µM,[3]; Chlorocebus sabaeus,61%
same,activation at 10 µM,[3]; [10],73%
same,activation at 20 µM,[3]; Chlorocebus sabaeus,103%
"CN(C)C(=O)C(CCN1CCC(O)(c2ccc(Cl)cc2)CC1)(c1ccccc1)c1ccccc1 [loperamide hydrochloride, reference compound]",CaCo2 CPE inhibition %,[4],58.93%
same,Vero-E6 CPE inhibition %,[5],5.03%
same,activation at 5 µM,[3]; Chlorocebus sabaeus,55%
same,activation at 10 µM,[3]; [10],75.4%
same,activation at 20 µM,[3]; Chlorocebus sabaeus,86.1%
"c1ccc(CNc2nc(NCc3ccccc3)c3ccccc3n2)cc1 [DBeQ, reference compound]",CaCo2 CPE inhibition %,[4],100.89%
same,Vero-E6 CPE inhibition %,[5],-0.3
same,PLD Effect in % 5 µM,[3],73.45%
same,PLD Effect in % 10 µM,[3],88.88%
same,PLD Effect in % 20 µM,[3],-36.11%
same,EC50,[3]; read-out: PLD EC50,1.19 µM
CN(C)CCCN1c2ccccc2Sc2ccc(Cl)cc21 [Chlorpromazine],activation at 10 µM,[1],80.8%
same,PLD effect % in CaCo2,[2],67.1%
same,activation at 10 µM,[3]; [8],116%
CN1CCCC(n2nc(Cc3ccc(Cl)cc3)c3ccccc3c2=O)CC1 (stereo not drawn) [Azelastine],activation at 10 µM,[1],89.8%
same,PLD effect % in CaCo2,[2],36.5%
same,activation at 10 µM,[3]; [8],81.7%

# Reference: publication PMC13083723 (Patterns, 2026)
